From paper PMC4138991, “Building a Better Dynasore: The Dyngo Compounds Potently Inhibit Dynamin and Endocytosis” (Traffic (Copenhagen, Denmark), 2013)
Entries after “also recorded” stand apart in the source; their conditions may differ.

Legend:
[1] = system: Tfn-A594 uptake in U2OS cells; assay: Automated quantitative CME assay: Tfn-A594 uptake; assay type: cell-based; details: for CME IC50 (μM) / IC50: Tfn-A594 uptake, U2OS, 30-min preincubation, serum-free; for IC50: Homo sapiens, read-out: CME IC50
Protocol: To determine whether the Dyngo compounds are widespread cell‐permeable and endocytosis inhibitors, CME of fluorescent Tfn was compared in an automated quantitative endocytosis assay in U2OS cells. The assay consisted of over 1200 cells under serum‐free conditions; after preincubation with each analog for 30 min the uptake of fluorescent Tfn was measured. We refer to this endocytosis as non‐neuronal CME to distinguish it from CME of synaptic vesicles in presynaptic terminals of neurons, which is referred to as synaptic vesicle endocytosis (SVE). In these cells, Tfn uptake is presumed to be mediated by dynamin II, because this is the only isoform of dynamin that they express, as determined by western blot (Figure S6). […] There was no apparent correlation between in vitro and in‐cell activity, with potent dynamin‐active compounds like 1a and 14a having no effect on non‐neuronal CME (Table 1). This might be explained by low membrane permeability of these analogs, their cellular metabolism or rapid cellular efflux mechanisms.
Quantitative analysis of the inhibition of Alexa 594‐Tfn endocytosis in U2OS cells was performed on large numbers of serum‐starved cells as described 10. Synaptic vesicle recycling in cultured CGNs was monitored using FM1‐43 as described 57 (see Supporting Information). Dynamin‐independent endocytosis was measured using internalization of CT in NIH3T3 cells (using Tfn as a control) as described previously 58 with minor changes (see Supporting Information). The average number of cells for each data point was ˜1200. IC50 values were calculated using GraphPad Prism 5 and data were expressed as mean ± 95% confidence interval (CI) for three wells and ˜1200 cells.

[2] = target: native sheep brain dynamin I (Ovis aries, UniProt A0ACI6PDC7); assay: PS liposome-stimulated (helical) dynamin I GTPase assay (Malachite Green); assay type: biochemical; details: IC50 with versus without Tween-80
Chain of native sheep brain dynamin I (A0ACI6PDC7 entry or part of it): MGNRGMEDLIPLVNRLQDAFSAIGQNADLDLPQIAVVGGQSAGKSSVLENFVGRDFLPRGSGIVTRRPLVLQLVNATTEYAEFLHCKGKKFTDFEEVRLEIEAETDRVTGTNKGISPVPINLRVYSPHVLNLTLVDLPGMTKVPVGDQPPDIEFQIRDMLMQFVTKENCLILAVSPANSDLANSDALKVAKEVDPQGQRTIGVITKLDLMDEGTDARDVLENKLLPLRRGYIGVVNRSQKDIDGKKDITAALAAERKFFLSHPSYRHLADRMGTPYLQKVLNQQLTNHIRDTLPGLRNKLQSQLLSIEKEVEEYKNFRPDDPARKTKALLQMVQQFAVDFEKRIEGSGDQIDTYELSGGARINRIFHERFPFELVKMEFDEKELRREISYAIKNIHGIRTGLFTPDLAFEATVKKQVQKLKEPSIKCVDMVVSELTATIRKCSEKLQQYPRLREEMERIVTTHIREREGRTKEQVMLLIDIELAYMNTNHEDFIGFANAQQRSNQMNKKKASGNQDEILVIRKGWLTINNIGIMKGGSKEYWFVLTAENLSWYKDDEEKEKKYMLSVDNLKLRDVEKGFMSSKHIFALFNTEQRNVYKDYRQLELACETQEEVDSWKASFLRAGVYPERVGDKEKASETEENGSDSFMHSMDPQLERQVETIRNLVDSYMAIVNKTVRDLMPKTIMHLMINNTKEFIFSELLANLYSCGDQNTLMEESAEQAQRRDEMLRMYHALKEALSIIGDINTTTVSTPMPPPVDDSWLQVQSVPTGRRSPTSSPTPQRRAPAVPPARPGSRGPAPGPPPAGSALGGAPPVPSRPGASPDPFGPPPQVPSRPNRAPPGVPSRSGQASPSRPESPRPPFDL
Excerpt: Recombinant dynamin I was used only for the data in Table 2. The dynamin antibodies were from: Dynamin I—in‐house YF2 antibodies, raised in rabbits against two different synthetic peptides: dynamin I 629‐647 ([…]) and dynamin I 765–778 ([…]), used at 1/2000 dilution, as previously described 53; Dynamin II—Santa Cruz (C‐18, sc‐6400, used at 1/1000) and Dynamin III—Santa Cruz (P‐13, sc‐69472, used at 1/500 dilution).
The Malachite Green colorimetric GTPase assay was as described 10. Dynamin I activity was measured in its SAI activity state or was stimulated by three different methods. As each stimulus activates dynamin to different extents, each assay required different dynamin concentrations. First, maximal dynamin activity was stimulated by sonicated PS liposomes 10. […] Finally, dynamin (500 nM) SAI activity was measured using high concentrations of dynamin, which promote its cooperative self‐assembly into rings (but not helices) 26. […] After the Vmax and Km values were determined, the data were transformed using the Lineweaver–Burke equation, 1/v = 1/Vmax + (Km/Vmax)(1/[S]).

dynamin = system: dynamin; design: method as in PMID 19459681; details: read-out: dynamin inhibitor potency; cited from earlier work

Structure (SMILES) | CME IC50 (μM) [1] | IC50 [1] | other results
O=C(NN=Cc1cnc2ccccc2n1)c1cc2ccccc2cc1O [12a, 3-Hydroxynaphthalene-2-carboxylic acid quinoxaline-2-ylmethylenehydrazide] | Not active (n = 2) |  | 
O=C(N/N=C/c1ccc2nsnc2c1)c1cc2ccccc2cc1O [14a, (E)-N'-(benzo[c][1,2,5]thiadiazol-5-ylmethylene)-3-hydroxy-2-naphthohydrazide] | no effect; also recorded: Not active (n = 4) |  | 
O=C(N/N=C/c1ccc(O)c(O)c1O)c1cc2ccccc2cc1O [3a, (E)-3-Hydroxy-N'-(2,3,4-trihydroxybenzylidene) -2-naphthohydrazide] |  | 9.8 ± 1.5 µM | 
O=C(N/N=C/c1cc(O)c(O)c(O)c1)c1cc2ccccc2cc1O [5a, (E)-3-Hydroxy-N'-(3,4,5-trihydroxybenzylidene) -2-naphthohydrazide] |  | 6.2 ± 2 µM | times more potent than dynasore in CME assay ([1]; same conditions, U2OS Tfn uptake): six times more potent
O=C(N/N=C/c1cc(O)cc(O)c1)c1cc2ccccc2cc1O [8a, (E)-N'-(3,5-Dihydroxybenzylidene)-3-hydroxy-2-naphthohydrazide] |  | 179 ± 20 µM | 
CC(=O)Nc1ccc(/C=N/NC(=O)c2cc3ccccc3cc2O)cc1 [10a, (E)-N-(4-{[2-(3-hydroxy-2-naphthoyl)hydrazono]methyl}phenyl)acetamide] | Not active (n = 2) |  | 
O=C(N/N=C/c1ccc2nonc2c1)c1cc2ccccc2cc1O [13a, (E)-N'-(benzo[c][1,2,5]oxadiazol-5-ylmethylene)-3-hydroxy-2-naphthohydrazide] | Not active (n = 3) |  | 
Cc1[nH]c2ccccc2c1/C=N/NC(=O)c1cc2ccccc2cc1O [11a, (E)-3-hydroxy-N'-((2-methyl-1H-indol-3-yl)methylene)-2-naphthohydrazide] |  | 63.4 ± 4.4 µM | 
O=C(N/N=C/c1ccc(O)cc1O)c1cc2ccccc2cc1O [1a, (E)-N'-(2,4-Dihydroxybenzylidene)-3-hydroxy-2-naphthohydrazide] | little or no effect; also recorded: Not active (n = 3) |  | detergent (Tween) sensitivity: fold potency change on removal of Tween [2]: < 10 fold
CCCCCCCCNC(=O)C(C#N)=Cc1cn(CCN(C)C)c2ccccc12 [Dynole 34‐2, 2‐cyano‐3‐(1‐(2‐(dimethylamino)ethyl)‐1H‐indol‐3‐yl)‐N‐octylacrylamide] |  |  | IC50 (dynamin): 1.3 ± 0.3 µM
